Data from patent US4567169A, “Nitrosourea substituted phosphonates and pharmaceutical use” (priority 1982, dated 1986).

Experiments:
[1] = test system: pyruvic glutamic transaminase; experiment: hepatic toxicity (Wroblewski's method), pyruvic glutamic transaminase activity in serum; assay type: in vivo, Long Evans rats
Experimental: The hepatic toxicity is assessed according to Wroblewski's method by measuring the pyruvic glutamic transaminase activity contained in the serum from Long Evans rats treated with an intraperitoneal injection of 25 mg/kg of BCNU or with equipotential doses of the compounds according to the invention.

pulmonary metastases = experiment: antimetastatic capacity: reduction in number and weight of pulmonary metastases developed after intramuscular inoculation of carcinoma cells; assay type: in vivo; conditions: 10 mg/kg as a curative treatment for 9 days
Experimental: The antimetastatic capacity of the compounds of the present invention is measured by the reduction, compared with untreated animals, in the number and weight of pulmonary metastases developed after intramuscular inoculation of carcinoma cells.

[2] = test system: tumour-bearing mice (tumorous cells inoculated by intraperitoneal or intramuscular route); experiment: capacity to increase the life-span of mice bearing tumorous cells (NCI protocols, Geran et al.); assay type: in vivo; conditions: 5 mg/kg
Experimental: The compounds according to the invention are tested by their capacity to increase the life-span of mice bearing tumorous cells inoculated by intraperitoneal or intramuscular route in accordance with the protocols edicted by the National Cancer Institute (U.S.A.) and published by R. I. GERAN et al. in Cancer Chemotherapy Reports 1972, part III, Vol. 3 (2), 1-87.
Given per os, these compounds increase the life-span of tumor-bearing animals. The rate of effectiveness of the active doses per os over the active dose by intraperitoneal route is greater for the compounds according to the invention than for the reference products (F. SPREAFICO et al. in Nitrosoureas: current status and new developments, A. W. PRESTAYKO et al. editors, 1981, Academic Press (New York); Experimental Evaluation of Antitumor Drugs in the USA and USSR and clinical correlations; National Cancer Institute Monograph No. 55; National Institutes of Health USA 1980).

In the case of `O=NN(CCCl)C(=O)NCCCl` [BCNU, N-N'-bis(2-chloroethyl)-N-nitrosourea, reference compound], the hepatic toxicity ([1]; intraperitoneal injection of 25 mg/kg of BCNU or equipotential doses of the compounds) was “notable hepatic toxicity”.
For `CCOP(=O)(OCC)C(C)NC(=O)N(CCCl)N=O` (stereo not shown) [Example 4, 1-[N-(2-chloroethyl)-N-nitrosoureido]ethylphosphonic acid diethyl ester], the formation of metastases (pulmonary metastases) was “prevents the formation of metastases”, the long-term survivors [2] was “inducing long-term survivors” and the “serum pyruvic glutamic transaminase level” value ([1]; 25 mg/kg, Long Evans rats) was “does not lead to an increase in the enzyme level outside the range usually found in untreated rats”.
